One data set relates to LNCaP cells. Nature of the data set: Cell viability (AlamarBlue), LNCaP prostate cancer cells. Type of data set: cell-based, human. The settings on record: Homo sapiens, LNCaP, 72 h, 72 hours of treatment. The method in brief:
(§1)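 Cells were plated, and compounds were added at increasing concentrations after 24 h. Viability was measured by AlamarBlue fluorescence after 72 h of treatment and normalized to untreated controls to fit EC50.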
(Resazurin is reduced to fluorescent resorufin, in cell work by metabolically active cells.)

The subject of the next data set is 22RV1 cells. Nature of the data set: Cell viability (AlamarBlue), 22RV1 prostate cancer cells. The class given is cell-based, human. The settings on record: 72 hours of treatment. The method in brief:
as §1

A further data set has as its system U87 cells. As to the kind of experiment: Cell viability (AlamarBlue), U87 glioblastoma cells. The conditions noted are these: 72 hours of treatment. The class given is cell-based, human. The method in brief:
as §1

A further data set deals with MCF7 cells. Nature of the data set: Cell viability (AlamarBlue), MCF7 breast cancer cells. Type of data set: cell-based. The conditions noted are these: Homo sapiens, 72 hours of treatment. On the procedure: (§2) In another exemplary method, half maximal effective concentration (EC50) was determined for some compounds and their isomers as disclosed herein in a variety of human cancer cell lines. In brief, cells from two prostate cancer cell lines (LNCaP, 22RV1), one glioblastoma cell line (U87), one breast cancer cell line (MCF7), a glioma cell line (LN18), a normal prostate cell line (RWPE1), and a glioblastoma cell line (T98G) were plated in a multi-well plate. After 24 hours, one of the compounds herein was added to the well at increasing concentrations. After 72 hours of treatment, cell viability was assessed using AlamrBlue® (Invitrogen) and fluorescence was read using the CLARIOstar Plus Multilabel Plate Reader (BMG Labtech). Samples were normalized to no treatment controls. EC50 values were determined using GraphPad Prism.

Another data set deals with RWPE1 cells. As to the kind of experiment: Cell viability (AlamarBlue), RWPE1 normal prostate cells. The class given is cell-based, human. Further details: key to EC50 (μM) in RWPE1 cells: Inactive: less than 50% inhibition at the highest concentration tested at 50 μM. The settings on record: 72 hours of treatment, normal prostate cell line. The method in brief: as §1
Data set [1] is described as follows: Plasma and brain tissue levels after oral dose, brain tumor xenograft mice. Type of data set: in vivo, CrTac:NCr-Foxn1nu athymic nude mouse. The conditions noted are these: CrTac:NCr-Foxn1nu athymic nude, single oral dose 100 mg/kg. On the procedure:
In another exemplary method, levels of Compound 19A were determined in plasma and brain tissue following administration. For these studies, a CrTac:NCr-Foxn1^nu athymic nude mouse strain was used as an acceptable mouse model. For these experiments, CrTac:NCr-Foxn1^nu athymic nude mouse received […] of tumors implanted into the brain tissues. Compound 19A was then administered to the mice orally as a homogenous suspension in DMSO: (PEG 400: PVP=95:5)=1:4. A single dose of 100 mg/kg of Compound 19A was administered in this manner. Concentrations of the Compound 19A in plasma and brain tissue (after extraction) were measured using HPLC-MS quantitation.
FIG. 51 and Table 8 illustrate increasing concentrations of Compound 19A in both the left, healthy brain tissue and the right experimental brain tissue containing tumor as well as in plasma over time.

Data set [2] has as its system LN18 glioblastoma cancer cells. Nature of the data set: Combination with Temozolomide, Bliss synergy in LN18 cells. The settings on record: Temozolomide 0 to 1000 uM, compound 0.625 to 10 uM. The class given is cell-based. On the procedure: Synergy was calculated with the Bliss independence model. Compounds were combined at concentrations of 0 to 1000 uM for Temozolomide and 0.625 to 10 uM for compounds 19 and 59.

For data set [3], the system named is 22Rv1 prostate cancer cells. As to the kind of experiment: Combination with Rabusertib, Bliss synergy in 22Rv1 cells. The class given is cell-based. The settings on record: Rabusertib 0 to 30 uM, compound 0.625 to 5 uM. The protocol: Synergy was calculated with the Bliss independence model. Compounds were combined at concentrations of 0 to 30 uM for Rabusertib and 0.625 to 5 uM for compounds 73 and 76.

A further data set concerns LN18 cells. Nature of the data set: Cell viability (AlamarBlue), LN18 glioma cells. Type of data set: cell-based. The conditions noted are these: Homo sapiens, LN-18, 72 hours of treatment. The protocol:
as §2

Another data set relates to tubulin. Nature of the data set: Tubulin polymerization assay. Type of data set: biochemical. The settings on record: 5 uM (FIG. 41A, 41C) or 1 uM (FIG. 41B). On the procedure:
FIG. 41A-41C represent exemplary experiments illustrating inhibition of tubulin polymerization. FIG. 41A illustrates effects of compounds 19, 73, 86, 93 and 94 at 5 uM concentration. FIG. 41B illustrates effects of compounds 93, 94, 95 and 96 at 1 uM concentration.
FIG. 41C illustrates effects of compounds 73, 86, 87 and 88 at 5 uM concentration in accordance with certain embodiments of the present disclosure. Colchicine and vincristine are positive controls.
FIG. 42A-42B represent exemplary experiments illustrating inhibition of tubulin polymerization. FIG. 42A illustrates effects of compound 19 at 0.3, 1, 3 and 6 uM concentrations.
FIG. 42B illustrates effects of compound 73 at […] concentration in accordance with certain embodiments of the present disclosure. Colchicine and nocodazole are positive controls.
In another exemplary method, the effect of the compounds herein on tubulin polymerization was determined. FIG. 41A illustrates effects of compounds 19, 73, 86, 93 and 94 at 5 uM concentration, FIG. 41B illustrates effects of compounds 93, 94, 95 and 96 at 1 uM concentration, or FIG. 41C illustrates effects of compounds 87 and 88 at 5 uM concentration in accordance with certain embodiments of the present disclosure. Colchicine and vincristine are positive controls.
The dose dependent effect of compounds 19 and 73 on tubulin polymerization was also determined. FIG. 42A illustrates effects of compound 19 at 0.3, 1, 3 and 6 uM concentrations, and FIG. 42B illustrates effects of compound 73 at 0.1, 0.3, 1, 3 and 5 uM concentration in accordance with certain embodiments of the present disclosure. Colchicine and nocodazole are positive controls.

A short description of data set [4]: Kinetic solubility in aqueous PBS buffer (HPLC-MS). Type of data set: physicochemical. The conditions noted are these: kinetic from dmso stock, DMSO stock mixed with aqueous PBS buffer, filtered, read-out: Kinetic Solubility. In short, it runs like this:
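A concentrated DMSO stock was mixed with aqueous PBS buffer and filtered. The filtrate was quantified against an HPLC-MS calibration curve.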

In another data set the test system is T98G cells. Nature of the data set: Cell viability (AlamarBlue), T98G glioblastoma cells. The conditions noted are these: Homo sapiens, 72 hours of treatment. Type of data set: cell-based. On the procedure:
as §2

Setting [5] is: mouse, brain tissue (left, healthy), read-out: Brain Tissue Healthy, Left concentration.
Setting [6] is: mouse, brain tissue (right, containing tumor), read-out: Brain Tissue Tumor, right concentration.
[7] abbreviates: plasma, tumor-bearing nude mouse, read-out: Plasma concentration.

≈ marks a conversion by molar mass, not a printed value. Read-outs that look alike come from different tables or passages of the source.

Usually EC50 stands for the concentration that produces a half-maximal response. Turning to `COC1CC(C(=O)NC(=O)Nc2ccc(Oc3ccc(Cl)cn3)c(C)c2)C1` (single isomer, unassigned) [Compound 19A, 1-{4-[(5-chloropyridin-2-yl)oxy]-3-methylphenyl}-3-(3-methoxycyclobutanecarbonyl) urea], the concentration for a half-maximal effect (EC50) in the data set with LNCaP cells came out at 0.87 µM; with 22RV1 cells it was 0.95 µM; in the data set with U87 cells, 2.2 µM; in the data set on MCF7 cells, 2.8 µM. In the data set on RWPE1 cells, the “EC50 (μM) in RWPE1 cells” value is listed as “Inactive”. For the same compound, the concentration at 0.5 h in data set [1] (setting [5]) turned out to be 767 ng/g; in data set [1] (setting [6]), 828 ng/g; in data set [1] (setting [7]), 973 ng/mL. Moreover, the concentration at 1 h in data set [1] (setting [5]) worked out at 1230 ng/g; in [1] (setting [6]) it was 1460 ng/g; in data set [1] (setting [7]) it was 1340 ng/mL. The concentration at 6 h in data set [1] (setting [5]) was determined as 1460 ng/g; in data set [1] (setting [6]) it was 1520 ng/g; in data set [1] (setting [7]), 1510 ng/mL.

For the compound `COC1CC(C(=O)NC(=O)Nc2ccc(Oc3nc(C)c(C)s3)c(C)c2)C1` (centres unmarked) [Compound 59, N-((4-((4,5-dimethylthiazol-2-yl)oxy)-3-methylphenyl)carbamoyl)-3-methoxycyclobutane-1-carboxamide], the EC50 was found to be 0.27 µM with LNCaP cells; 0.08 µM in the data set with 22RV1 cells (Homo sapiens, 22Rv1, 72 h); 0.002 µM in the data set on U87 cells (Homo sapiens, U-87 MG, 72 h). For the same compound, the “Bliss Synergy value, combination with Temozolomide” value in [2] (LN18 cells, Bliss independence model) amounted to 20.0. The “effect of combination with Temozolomide on cancer cell viability” value in data set [2] is given as “synergistic decrease in cancer cell viability”.

Regarding `COC1CC(C(=O)NC(=O)Nc2cc(C)c(Oc3ccc(Cl)cn3)c(F)c2)C1` (centres unmarked) [Compound 76, N-((4-((5-chloropyridin-2-yl)oxy)-3-fluoro-5-methylphenyl)carbamoyl)-3-methoxycyclobutane-1-carboxamide], the 50% effective concentration (EC50) with U87 cells (Homo sapiens, U-87 MG, 72 h) stood at 0.1 µM. The “Bliss Synergy value, combination with Rabusertib” value in [3] (22Rv1 cells, Bliss independence model) came to 15.3. In addition, the “effect of combination with Rabusertib on cancer cell viability” value in data set [3] is “synergistic decrease in cancer cell viability”.

In the case of `COC12CC(C(=O)NC(=O)Nc3ccc(Oc4ccc(Cl)cn4)c(C)c3)(C1)C2` [Compound 84, N-((4-((5-chloropyridin-2-yl)oxy)-3-methylphenyl)carbamoyl)-3-methoxybicyclo[1.1.1]pentane-1-carboxamide], the half-maximal effective concentration (EC50) with U87 cells (Homo sapiens, U-87 MG, 72 h) was determined as 0.16 µM; in the data set on LN18 cells it was 0.01 µM.

`COC12CC(C(=O)NC(=O)Nc3ccc(Oc4ccccn4)c(C)c3)(C1)C2` [Compound 86, 3-methoxy-N-((3-methyl-4-(pyridin-2-yloxy)phenyl)carbamoyl)bicyclo[1.1.1]pentane-1-carboxamide] showed a concentration giving a half-maximal response (EC50) in the data set on U87 cells (Homo sapiens, U-87 MG, 72 h) of 0.26 µM. In addition, the “effect on tubulin polymerization” value with tubulin is on record as “significantly inhibit tubulin polymerization”.

The term kinetic solubility denotes the concentration staying in solution when a stock, usually in DMSO, is diluted into the medium. `COC12CC(C(=O)NC(=O)Nc3ccc(Oc4ncccn4)c(C)c3)(C1)C2` [Compound 87, 3-methoxy-N-((3-methyl-4-(pyrimidin-2-yloxy)phenyl)carbamoyl)bicyclo[1.1.1]pentane-1-carboxamide]: the EC50 with U87 cells (Homo sapiens, U-87 MG, 72 h) was 1.2 µM. Moreover, the solubility (kinetic) in data set [4] worked out at 27.5 µM (≈ 10.1 µg/mL). Besides, the “effect on tubulin polymerization” value in the data set with tubulin is listed as “significantly inhibit tubulin polymerization”.

Turning to `COC12CC(C(=O)NC(=O)Nc3ccc(Oc4ncc(F)cn4)c(C)c3)(C1)C2` [Compound 88, N-((4-((5-fluoropyrimidin-2-yl)oxy)-3-methylphenyl)carbamoyl)-3-methoxybicyclo[1.1.1]pentane-1-carboxamide], the EC50 in the data set on U87 cells (Homo sapiens, U-87 MG, 72 h) is 1.45 µM. The solubility (kinetic) in data set [4] was determined as 10.9 µM (≈ 4.21 µg/mL). Also, in the data set on tubulin, the “effect on tubulin polymerization” value is given as “significantly inhibit tubulin polymerization”.

For `COC12CC(C(=O)NC(=O)Nc3cc(C)c(Oc4ccc(F)cn4)c(F)c3)(C1)C2` [Compound 91, N-((3-fluoro-4-((5-fluoropyridin-2-yl)oxy)-5-methylphenyl)carbamoyl)-3-methoxybicyclo[1.1.1]pentane-1-carboxamide], the half-maximal effective concentration (EC50) in the data set with U87 cells (Homo sapiens, U-87 MG, 72 h) worked out at 0.63 µM; with LN18 cells, 0.087 µM; in the data set on T98G cells, 0.167 µM.

In the data set on U87 cells (Homo sapiens, U-87 MG, 72 h), `COC1CC(C(=O)NC(=O)Nc2ccc(C)c(Oc3ccccn3)c2)C1` (centres unmarked) [Compound 94, 3-methoxy-N-((4-methyl-3-(pyridin-2-yloxy)phenyl)carbamoyl)cyclobutane-1-carboxamide] showed an EC50 of 0.045 µM. For the same compound, the kinetic solubility in [4] is 11.8 µM (≈ 4.19 µg/mL). In addition, the “effect on tubulin polymerization” value with tubulin is “significantly inhibit tubulin polymerization”.

With `COC1CC(C(=O)NC(=O)Nc2ccc(C)c(Oc3ccc(F)cn3)c2)C1` (centres unmarked) [Compound 95, N-((3-((5-fluoropyridin-2-yl)oxy)-4-methylphenyl)carbamoyl)-3-methoxycyclobutane-1-carboxamide], in the data set with U87 cells (Homo sapiens, U-87 MG, 72 h), the EC50 is 0.014 µM. Also, the kinetic solubility in [4] came to 7.2 µM (≈ 2.69 µg/mL). The “effect on tubulin polymerization” value with tubulin is recorded as “significantly inhibit tubulin polymerization”.

In the data set with U87 cells (Homo sapiens, U-87 MG, 72 h), `COC1CC(C(=O)NC(=O)Nc2ccc(C)c(Oc3ncccn3)c2)C1` (centres unmarked) [Compound 96, 3-methoxy-N-((4-methyl-3-(pyrimidin-2-yloxy)phenyl)carbamoyl)cyclobutane-1-carboxamide] yielded a half-maximal effective concentration (EC50) of 0.035 µM. Further, the solubility (kinetic) in data set [4] stood at 14.8 µM (≈ 5.27 µg/mL). The “effect on tubulin polymerization” value with tubulin is recorded as “significantly inhibit tubulin polymerization”.

The record behind these values is US12404242B2, “Compositions and methods for making and using small molecules in the treatment of cancer” (Reglagene, Inc., priority 2021, dated 2025).
